From patent publication US10683334B2 (INDIANA UNIVERSITY RESEARCH AND TECHNOLOGY CORPORATION, priority 2016, dated 2020)
Square brackets hold non-standard residues; d marks the D form. Peptide text beside a SMILES is read from it. Aib = CC(C)(N)C(=O)O

Columns and labels:
physchem = test: physchem
Description: 1 or 5 mg of pre-lyophilized peptide in 2 mL Eppendorf tube was treated with 200-400 uL of phosphate buffer (PBS: 50 mM sodium phosphate, 150 mM of sodium chloride, pH7.4). Samples were then vortexed and sonicated for 10 min then equilibrated at RT for 1H, and then centrifuged at 10 krpms for 10 min Concentration of the peptides in obtained supernatant was determined by measuring UV absorbance at λ=280 nm. […] Concentration in aliquots was reassessed as previously with UV absorbance. Change in peptide concentration was evaluated after 48 h and 7 days of storage at 4° C.

[1] = Thioflavin-T fluorescence assay (fibrillation/aggregation); format: physicochemical
Description: The Thioflavin T (ThT) Assay measures changes of in fluorescence intensity of ThT upon binding to amyloid fibrils. The enhanced fluorescence can be observed by fluorescence microscopy or by fluorescent spectroscopy. The spectroscopic assay is commonly used to monitor fibrilization over time, but the assay is not strictly quantitative and differences in binding have been observed for samples after lyophilization.
Prepare a ThT stock solution by adding 8 mg ThT to 10 mL phosphate buffer (10 mM phosphate, 150 mM NaCl, pH 7.0) and filter through a 0.2 μm syringe filter. This stock solution should be stored in the dark and is stable for about one week.
Dilute the stock solution into the phosphate buffer (1 mL ThT stock to 50 mL buffer) on the day of analysis to generate the working solution.
Add an aliquot of untreated protein solution (5-10 μL) to the cuvette, stir for 1 min, and measure the intensity over 60 s. This serves as the control sample. […]
Lyophilized peptides were dissolved in appropriate buffer at concentration ˜8-9 mg/mL (1-5 in 0.1N hydrochloric acid; 7, 9 and 11 in 50 mM Sodium Phosphate, 150 mM of sodium chloride, pH7.4). Exact concentration was calculated based on UV absorbance at λ=280 nm and all samples were dissolved further down to equal concentration of 5 mg/mL. […] Fibrillation was measured according to modified Thioflavin-T fluorescence assay protocol. […]

[2] = system: insulin induced hypoglycemia in diabetic pigs; test: Pig study: reversal of insulin induced hypoglycemia; format: in vivo, Yucatan miniature swine; settings: insulin detemir 0.5 U/kg s.c. at 0 min, peptide 10 nmoles/kg at 240 min
Description: Male diabetic Yucatan miniature swine (4 animals/group) were fed and administered NPH insulin at 8:00 AM and at 12 h prior to the initiation of the study, then fasted until the completion of the final blood glucose measurements. Insulin NPH doses were adjusted based on glucose levels and the animals were randomized to achieve balanced glucose levels across groups. […] Blood glucose was measured at −5, 0 (Pre-Dose), 30, 60, 120, 240, 245, 250, 260, 280, 300, 330, 360 and 480 minutes using a handheld glucometer. The same instrument was used for all animals and two readings were taken per time point to insure consistency. The statistical analysis of the results obtained in the in vivo experiments was performed using Prism 6.0h (GraphPad Software, Calif.) applying regular two-way ANOVA followed by Sidak multiple comparison test between the two treatments. […] The results are presented as means±SEM of four replicates per group.

glucagon receptor = glucagon receptor (Homo sapiens, UniProt P47871); test: Luciferase-based glucagon assay (cAMP reporter, HEK293 cells)
Chain of glucagon receptor (P47871 26-477): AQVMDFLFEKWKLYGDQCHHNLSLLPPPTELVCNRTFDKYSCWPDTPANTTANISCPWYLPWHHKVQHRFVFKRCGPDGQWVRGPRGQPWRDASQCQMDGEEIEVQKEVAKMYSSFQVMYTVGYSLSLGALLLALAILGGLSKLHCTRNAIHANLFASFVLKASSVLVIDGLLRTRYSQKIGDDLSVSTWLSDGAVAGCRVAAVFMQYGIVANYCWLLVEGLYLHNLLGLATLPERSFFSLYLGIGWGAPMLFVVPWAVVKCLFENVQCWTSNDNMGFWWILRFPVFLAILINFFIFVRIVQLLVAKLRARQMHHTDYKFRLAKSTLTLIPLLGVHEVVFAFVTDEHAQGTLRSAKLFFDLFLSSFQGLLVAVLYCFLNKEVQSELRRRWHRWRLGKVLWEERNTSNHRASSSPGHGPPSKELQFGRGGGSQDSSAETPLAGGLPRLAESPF
Description: At the end of the incubation 100 microliters of LucLite luminescence substrate reagent (Perkin-Elmer, Wellesley, Mass.) were added to each well. […] The luminescent light output indicates activation of the luciferase reporter gene, which in turn is a measure of the activation of the receptor.

hGLP-1R = hGLP-1R (Homo sapiens, UniProt P43220); test: cAMP luciferase reporter assay, activity at the GLP-1 receptor (Table 3)
Chain of hGLP-1R (P43220 24-463): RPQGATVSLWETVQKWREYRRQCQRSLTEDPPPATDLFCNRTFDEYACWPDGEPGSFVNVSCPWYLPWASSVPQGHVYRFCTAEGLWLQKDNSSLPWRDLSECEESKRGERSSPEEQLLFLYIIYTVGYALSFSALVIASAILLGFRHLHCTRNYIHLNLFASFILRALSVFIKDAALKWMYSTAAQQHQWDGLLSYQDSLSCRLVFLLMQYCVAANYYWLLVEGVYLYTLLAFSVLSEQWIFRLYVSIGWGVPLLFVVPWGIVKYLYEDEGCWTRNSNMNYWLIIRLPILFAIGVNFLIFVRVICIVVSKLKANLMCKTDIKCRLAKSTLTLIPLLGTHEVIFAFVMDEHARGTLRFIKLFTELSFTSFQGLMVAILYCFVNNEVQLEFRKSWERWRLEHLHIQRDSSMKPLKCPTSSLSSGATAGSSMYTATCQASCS

| SMILES | solubility (physchem; pH 7) | solubility at 1 h (physchem; pH 7.4) | resistance to fibrillation (thioflavin-T fluorescence, FIG. 2) ([1]; 5 mg/mL, 37° C. 48H without agitation, then 40° C. 48H with agitation) | stability / resistance to fibrillation (ThT assay, FIG. 8) ([1]; 45 hours at 37° C., pH 7.0 in phosphate buffer) | reversal of insulin induced hypoglycemia (blood glucose) [2] | in vitro efficacy / potency (in words) (glucagon receptor; luciferase-based glucagon assay) | EC50 (glucagon receptor; read-out: EC50 [nM] (SDV), luciferase-based glucagon assay, SDV in brackets) | % bioactivity of GCG (glucagon receptor; relative to native glucagon) | EC50 (hGLP-1R) |
| --- | --- | --- | --- | --- | --- | --- | --- | --- | --- |
| CSCC[C@H](NC(=O)[C@H](CC(C)C)NC(=O)[C@H](Cc1c[nH]c2ccccc12)NC(=O)[C@H](CCC(N)=O)NC(=O)[C@@H](NC(=O)[C@H](Cc1ccccc1)NC(=O)[C@H](CC(=O)O)NC(=O)[C@H](CCC(N)=O)NC(=O)[C@H](C)NC(=O)[C@H](CCCNC(=N)N)NC(=O)[C@H](CCCNC(=N)N)NC(=O)C(C)(C)NC(=O)[C@H](CC(=O)O)NC(=O)[C@H](CC(C)C)NC(=O)[C@H](Cc1cccnc1)NC(=O)[C@H](CCCCN)NC(=O)[C@H](CO)NC(=O)[C@H](Cc1cccnc1)NC(=O)[C@H](CC(=O)O)NC(=O)[C@H](CO)NC(=O)[C@@H](NC(=O)[C@H](Cc1cccnc1)NC(=O)[C@@H](NC(=O)CNC(=O)[C@H](CCC(N)=O)NC(=O)[C@H](CO)NC(=O)[C@@H](N)Cc1cnc[nH]1)[C@@H](C)O)[C@@H](C)O)C(C)C)C(=O)N[C@@H](CC(N)=O)C(=O)N[C@H](C(=O)O)[C@@H](C)O [Compound 9, HSQGTXTSDXSKXLDZRRAQDFVQWLMNT] | > 10000 µg/mL | > 10000 µg/mL | resistant to fibrillation | showed stability | reverse insulin induced hypoglycemia | fully potent | 0.0714 nM | 28% |  |
| CSCC[C@H](NC(=O)[C@H](CC(C)C)NC(=O)[C@H](Cc1c[nH]c2ccccc12)NC(=O)[C@H](CCC(N)=O)NC(=O)[C@@H](NC(=O)[C@H](Cc1ccccc1)NC(=O)[C@H](CC(=O)O)NC(=O)[C@@H](CCC(N)=O)NC(=O)[C@H](C)NC(=O)[C@H](CCCNC(=N)N)NC(=O)[C@H](CCCNC(=N)N)NC(=O)C(C)(C)NC(=O)[C@H](CC(=O)O)NC(=O)[C@H](CC(C)C)NC(=O)[C@H](Cc1ccc(O)cc1)NC(=O)[C@H](CCCCN)NC(=O)[C@H](CO)NC(=O)[C@H](Cc1cccnc1)NC(=O)[C@H](CC(=O)O)NC(=O)[C@H](CO)NC(=O)[C@@H](NC(=O)[C@H](Cc1ccccc1)NC(=O)[C@@H](NC(=O)CNC(=O)[C@H](CCC(N)=O)NC(=O)[C@H](CO)NC(=O)[C@@H](N)Cc1c[nH]cn1)[C@@H](C)O)[C@@H](C)O)C(C)C)C(=O)N[C@@H](CC(N)=O)C(=O)N[C@H](C(=O)O)[C@@H](C)O [SEQ ID NO: 971, 3-Pal10, Aib16, q20] |  |  |  |  |  |  |  |  | > 10 nM |
| CSCC[C@H](NC(=O)[C@H](CC(C)C)NC(=O)[C@H](Cc1c[nH]c2ccccc12)NC(=O)[C@H](CCC(N)=O)NC(=O)[C@@H](NC(=O)[C@H](Cc1ccccc1)NC(=O)[C@H](CC(=O)O)NC(=O)[C@@H](CCC(N)=O)NC(=O)[C@H](C)NC(=O)[C@H](CCCNC(=N)N)NC(=O)[C@H](CCCNC(=N)N)NC(=O)C(C)(C)NC(=O)[C@H](CC(=O)O)NC(=O)[C@H](CC(C)C)NC(=O)[C@H](Cc1ccc(O)cc1)NC(=O)[C@H](CCCCN)NC(=O)[C@H](CO)NC(=O)[C@H](Cc1ccc(O)cc1)NC(=O)[C@H](CC(=O)O)NC(=O)[C@H](CO)NC(=O)[C@@H](NC(=O)[C@H](Cc1ccccc1)NC(=O)[C@@H](NC(=O)CNC(=O)[C@H](CCC(N)=O)NC(=O)[C@H](CO)NC(=O)[C@@H](N)Cc1c[nH]cn1)[C@@H](C)O)[C@@H](C)O)C(C)C)C(=O)N[C@@H](CC(=O)O)C(=O)N[C@@H](CCC(=O)O)C(=O)O [SEQ ID NO: 981, Aib16, q20, D28, E29] (H-HSQGTFTSDYSKYLD[Aib]RRA[dQ]DFVQWLMDE-OH; N-terminus and C-terminus assumed) |  |  |  |  |  |  |  |  | > 10 nM |
